Test results taken from patent US12616203B2, “Use of 3-isoxazolidinones compounds as selective herbicides” (FMC Corporation, priority 2014, dated 2026).

What was measured:
weeds [1] = test: Ex16 PRE greenhouse; format: in vivo; conditions: weed and rate in the words
Text: (§1) To determine PRE efficacy, five levels of 2,4 DC (36.7% CS) 0, 125, 170, 210, or 250 g ai/ha and five levels of pyroxasulfone (KIH485-85WG) 0, 50, 65, 80, or 95 g ai/ha were applied either alone or as tank-mix. Additional treatments consisted of premix of pyroxasulfone plus fluthiacet-methyl (Anthem™ 23.3%) at 169.9 g ai/ha, S-metolachlor (Dual II Magnum, 82.4%) at 1388 g, and tank-mix of mesotrione (Callisto, 40%) at 123 g plus S-metolachlor at 1252 g. […] Treatments were applied before the emergence of black nightshade, giant foxtail, green foxtail, yellow foxtail, large crabgrass, kochia, redroot pigweed, common ragweed, and barnyardgrass.
(§2) Flats were watered and fertilized routinely after treatment application. Each treatment was replicated three times.

weeds [2] = test: Ex10 PRE greenhouse; format: in vivo; conditions: 28 DAT, weed and rate in the words
Text: Treatments 1-12 of 2,4-DC and aclonifen tank-mix combinations follow same rates listed above. […] Sulfentrazone (Spartan 4F® 39.6%) at 280 g ai/ha, pendimethalin (Prowl 3.3®EC, 37.4%) at 784 g ai/ha, or S-metolachlor (Dual II Magnum® 82.4%) at 1084 g ai/ha were applied as commercial standards. Treatments were replicated 3 times and flats were watered after planting but before the treatment and lightly watered after treatment application. Thereafter flats were watered and fertilized routinely. […] Shepherd's-purse was rated at 21 and 28 DAT only, due to delayed emergence.

weeds [3] = test: Ex21 PRE greenhouse; format: in vivo; conditions: 28 DAT, weed and rate in the words
Text: 2,4 DC (36.7% CS) was applied PRE at 0, 125, 170, 210, or 250 g ai/ha alone or as a tank-mix with S-metolachlor (Dual II Magnum®, 82.4%) at 0, 267, 534, 801, or 1070 g ai/ha. Pyroxasulfone plus fluthiacet-methyl (Anthem™, 23.3%) applied at 169.9 g ai/ha, and the tank-mix of mesotrione (Callisto®, 40%) at 123 g plus S-metolachlor (Dual II Magnum®, 82.4%) at 1252 g were included as standards for comparison. […] Thereafter flats were watered and fertilized routinely. Each treatment was replicated three times.

Black nightshade = test: Ex15 PRE 2,4-DC + S-metolachlor, % control 28 DAT, Colby; format: in vivo, Solanum nigrum
Text: (§3) The weeds tested in this study were redroot pigweed (Amaranthus retroflexus, AMARE), Jimsonweed (Datura stramonium, DATST), black nightshade (Solanum nigrum, SOLNI), large crabgrass (Digitaria sanguinalis, DIGSA), Pennsylvania smartweed (Polygonum pensylvanicum, POLPY), horseweed (Conyza canadensis, ERICA), wild buckwheat (Polygonum convolvulus, POLCO). The crop tested was Corn (var. Viking).
(§4) To determine PRE efficacy and corn injury, five rates of each 2,4 DC (36.7% CS) and S-metolachlor (Dual II Magnum®, 82.4%) were applied either alone or as tank-mix. 2,4 DC was applied at 0, 125, 170, 210, or 250 g ai/ha and S-metolachlor was applied at 0, 267, 534, 801, or 1070 g ai/ha. Additional treatments included application of premix of pyroxasulfone plus fluthiacet-methyl (Anthem™ 23.3%) at 169.9 g ai/ha and tank-mix of mesotrione (Callisto®, 40%) at 123 g plus S-metolachlor at 1252 g. Treatments were applied just after the planting of large crabgrass, Jimsonweed, black nightshade, redroot pigweed, Pennsylvania smartweed, horseweed, wild buckwheat, and corn.
(§5) Flats were watered and fertilized routinely after treatment application. Each treatment was replicated three times. […] Corn injury was rated for bleaching and stunting.

[4] = tested on: weeds; Corn (var. Viking); test: Ex15 PRE greenhouse; format: in vivo; conditions: rate in the words
Text: as §3, §4, §5

weeds [5] = test: Ex22 PRE greenhouse; format: in vivo; conditions: 28 DAT, weed and rate in the words
Text: 2,4 DC (36.7% CS) was applied PRE at 0, 125, 170, 210, or 250 g ai/ha alone or as a tank-mix with S-metolachlor (Dual II Magnum®, 82.4%) at 0, 267, 534, 801, or 1070 g ai/ha. Pyroxasulfone plus fluthiacet-methyl (Anthem™, 23.3%) applied at 169.9 g ai/ha, and the tank-mix of mesotrione (Callisto®, 40%) at 123 g plus S-metolachlor (Dual II Magnum®, 82.4%) at 1252 g were included as a standards for comparison.
Thereafter flats were watered and fertilized routinely. Each treatment was replicated three times.

Pennsylvania smartweed = test: Ex15 PRE 2,4-DC + S-metolachlor, % control 28 DAT, Colby; format: in vivo, Polygonum pensylvanicum
Text: as §3, §4, §5

Wild buckwheat [6] = test: as above; format: in vivo, Polygonum convolvulus
Text: as §3, §4, §5

jimsonweed = test: as above; format: in vivo, Datura stramonium
Text: as §3, §4, §5

weeds; Corn = test: Ex25 PRE greenhouse; format: in vivo; conditions: rate in the words
Text: The crop tested in this study was Corn.
2,4 DC-21 (36.7% CS) was applied PRE at 0, 125, 170, 210, or 250 g ai/ha alone or as a tank-mix with pyroxasulfone (KIH-485, 85% WP) at 0, 50, 65, 80, or 95 g ai/ha. Pyroxasulfone plus fluthiacet-methyl (Anthem™, 23.3%) applied at 169.9 g ai/ha, s-metolachlor (Dual II Magnum®, 82.4%) applied at 1389 g, and the tank-mix of mesotrione (Callisto®, 40%) at 123 g plus s-metolachlor (Dual II Magnum®, 82.4%) at 1252 g were included as a standards for comparison. […] Thereafter flats were watered and fertilized routinely.

Wild buckwheat [7] = test: Ex12 PRE 2,4-DC + dimethenamid-P, % control 28 DAT, Colby; format: in vivo, Polygonum convolvulus
Procedure: (§6) The tested weeds include: wild buckwheat (Polygonum convolvulus, POLCO), velvetleaf (Abutilon theophrasti, ABUTH), cheat (Bromus secalinus, BROSE), wild oat (Avena fatua, AVEFA), radish (Raphanus sativus, RAPSN), corn poppy (Papaver rhoeas, PAPRH), yellow foxtail (Setaria pumila, SETLU), Italian ryegrass (Lolium perenne ssp. multiflorum, LOLMU). The tested crop was Oilseed rape.
(§7) This greenhouse study was conducted to assess the preemergence (PRE) weed control and oilseed rape tolerance with 2,4 DC (CS 36.7%) and dimethenamid-P (Outlook®, 63.9%) tank-mix combinations.
(§8) Metazachlor (Butisan, 43.1%) plus dimethenamid-P applied as tank mix at 500 g each was applied as commercial standard. Treatments were replicated 3 times and flats were watered after planting but before the treatment and then lightly watered after treatment application. Thereafter flats were watered and fertilized routinely.

Wild oat = test: as above; format: in vivo, Avena fatua
Procedure: as §6, §7, §8

weeds [8] = test: Ex20 PRE greenhouse; format: in vivo; conditions: weed and rate in the words
Text: Herbicides: • 2,4 DC-21 (36.7% CS): 125, 170, 210, or 250 g ai/ha alone and as tank-mix with dimethenamid-P • Dimethanamid-P (Outlook, 63.9%): 250, 375, 500 g ai/ha in combination with 2,4 DC and alone, additional treatment alone at 750 g ai/ha. • Metazachlor (Butisan 43.1%): 500 g ai/ha
Herbicides included as standards for comparison were metazachlor plus dimethenamid-P (500 g) as tank mix combination. […] Treatments were replicated 3 times. […] Thereafter flats were watered and fertilized routinely.

Common ragweed = test: Ex16 PRE 2,4-DC + pyroxasulfone, % control 28 DAT, Colby; format: in vivo, Ambrosia artemisiifolia
Text: as §1, §2

weeds [9] = test: Ex24 PRE greenhouse; format: in vivo; conditions: weed and rate in the words
Text: The tested weeds include Giant foxtail (Setaria faberi, SETFA), green foxtail (Setaria virdis, SETVI), yellow foxtail (Setaria pumila, SETLU), black nightshade (Solanum nigrum, SOLNI), kochia (Kochia scoparia, KCHSC), redroot pigweed (Amaranthus retroflexus, AMARE), common ragweed (Ambrosia artemisiifolia, AMBEL), barnyardgrass (Echinochloa crus-galli, ECHCG), large crabgrass (Digitaria sanguinalis, DIGSA).
as §1, with “DC-21” for “DC”, “Magnum®,” for “Magnum,”, “(Callisto®,” for “(Callisto,”, “bamyardgrass. […] Flats were watered and fertilized routinely after treatment application. Each treatment was replicated three times.” for “barnyardgrass.”

weeds [10] = test: Ex13 PRE greenhouse; format: in vivo; conditions: 28 DAT, weed and rate in the words
Text: Pyroxasulfone (KIH-485, 85%) at 74.3 g ai/ha, pendimethalin (Prowl 3.3EC, 37.4%) at 1200 g ai/ha, or a premix of chlorsulfuron plus metsulfuron-methyl (Report Extra, 75%) at 15.8 g ai/ha were applied as commercial standards. […] Treatments were replicated 3 times and flats were watered after planting before the treatment and lightly watered after treatment application. Thereafter flats were watered and fertilized routinely.

Morningglory sp. = test: Ex38 PRE 2,4-DC + pyroxasulfone, % control 28 DAT, Colby; format: in vivo, Ipomea spp; conditions: PRE
Text: Pyroxasulfone plus fluthiacet-methyl (ANTHEM™, 23.3%) applied at 165 g ai/ha was included as a standard for comparison. […] Thereafter flats were watered and fertilized routinely.

[11] = tested on: weeds; Wheat, barley, and oil seed rape (OSR); test: Ex19 PRE greenhouse; format: in vivo; conditions: rate in the words
Text: In this study, the crops tested included Wheat, barley, and oil seed rape (OSR).
To determine weed efficacy and wheat, barley or OSR selectivity, 2,4 DC (CS 36.7%) and Diflufenican (CS 19.5%) were applied preemergence either alone or as tank-mix partners at the following rates. 2,4 DC was applied at 125, 170, 210 and 250 g ai/ha while Diflufenican was applied at 50, 75, and 100 g ai/ha. Pyroxasulfone (KIH-485, 85%) at 74.3 g ai/ha, pendimethalin (Prowl 3.3EC, 37.4%) at 1200 g ai/ha, or a premix of chlorsulfuron plus metsulfuron-methyl (Report Extra, 75%) at 15.8 g ai/ha were applied as commercial standards.
Herbicides included as standards for comparison were pyroxasulfone, pendimethalin, and a pre mix of chlorsulfuron plus metsulfuron methyl, all applied at labeled rates as indicated above. Treatments were replicated 3 times. […] Thereafter flats were watered and fertilized routinely.

[12] = S-metolachlor alone 267 g ai/ha
[13] = S-metolachlor alone 534 g ai/ha
[14] = S-metolachlor alone 801 g ai/ha
[15] = S-metolachlor alone 1070 g ai/ha
[16] = dimethenamid-P alone 250 g ai/ha
[17] = dimethenamid-P alone 375 g ai/ha
[18] = dimethenamid-P alone 500 g ai/ha

## CCc1cccc(C)c1N(C(=O)CCl)[C@@H](C)COC [S-metolachlor, reference compound]
Weeds [1]
  weed control in words: controlled black nightshade, redroot pigweed, barnyardgrass, large crabgrass, and all three foxtail species
Weeds [2]
  weed control in words: at 1064 g controlled only two weeds
Weeds [3]
  weed control in words: applied alone controlled yellow foxtail, green foxtail, and barnyardgrass at all rates, quackgrass or common chickweed at ≥534 g, and common lambsquarters at ≥801 g
Black nightshade; [12]
  Y: 46%
Black nightshade; [13]
  Y: 85%
Black nightshade; [14]
  Y: 90%
Black nightshade; [15]
  Y: 95%
[4]
  weed control / crop safety in words: alone gave control of all species at different rates except Jimsonweed
Weeds [5]
  weed control in words: applied alone controlled Johnsongrass and goosegrass at all rates and controlled Benghal dayflower, prickly sida and common lambsquarters at 801 g
Pennsylvania smartweed; [12]
  Y: 75%
Pennsylvania smartweed; [13]
  Y: 95%
Pennsylvania smartweed; [14]
  Y: 100%
Pennsylvania smartweed; [15]
  Y: 100%
Wild buckwheat [6]; [12]
  Y: 33%
Wild buckwheat [6]; [13]
  Y: 65%
Wild buckwheat [6]; [14]
  Y: 82%
Wild buckwheat [6]; [15]
  Y: 85%
jimsonweed; [12]
  Y: 17%
jimsonweed; [13]
  Y: 17%
jimsonweed; [14]
  Y: 23%
jimsonweed; [15]
  Y: 28%
weeds; Corn
  weed control / crop safety in words: controlled only black nightshade and also caused severe stunting to corn

## COC[C@H](C)N(C(=O)CCl)c1c(C)csc1C [Dimethenamid-P, dimethenamid-P, reference compound]
Wild buckwheat [7]; [16]
  Y: 32%
Wild buckwheat [7]; [17]
  Y: 70%
Wild buckwheat [7]; [18]
  Y: 63%
Wild oat; [16]
  Y: 66%
Wild oat; [17]
  Y: 73%
Wild oat; [18]
  Y: 90%
Weeds [8]
  weed control in words: alone controlled redroot pigweed, giant foxtail, and goosegrass at all rates; common chickweed at ≥375 g; shepherd's-purse at ≥500 g; and Canada thistle at 750 g

## Cn1nc(C(F)(F)F)c(CS(=O)(=O)C2=NOC(C)(C)C2)c1OC(F)F [Pyroxasulfone, pyroxasulfone, reference compound]
Weeds [1]
  weed control in words: controlled all species except common ragweed which was not controlled at any rate
Common ragweed; pyroxasulfone alone 50 g ai/ha
  Y: 40%
Common ragweed; pyroxasulfone alone 65 g ai/ha
  Y: 53%
Common ragweed; pyroxasulfone alone 80 g ai/ha
  Y: 40%
Common ragweed; pyroxasulfone alone 95 g ai/ha
  Y: 70%
Weeds [9]
  weed control in words: controlled all species except common ragweed which was not controlled at any rate
Weeds [10]
  weed control in words: at 74.3 g controlled all weeds except tall morningglory and shepherd's-purse
Morningglory sp.; pyroxasulfone 30 g ai/ha
  Y (% control, pyroxasulfone alone): 9%
Morningglory sp.; pyroxasulfone 60 g ai/ha
  Y (% control, pyroxasulfone alone): 60%
Morningglory sp.; pyroxasulfone 90 g ai/ha
  Y (% control, pyroxasulfone alone): 65%
[11]
  weed control / crop safety in words: controlled all weeds except field violet and was safe on wheat only
